# Measurements reported in PMC11530130, “Peripherally restricted PICK1 inhibitor mPD5 ameliorates pain behaviors in murine inflammatory and neuropathic pain models” (JCI Insight, 2024).
# Several values for one entry are separate records, joined by “and”; a condition that tells them apart may be missing. Equal entries are not always repeated.
# Key:
# [1] = Plasma exposure after repeated s.c. administration (10 + 2 + 2 + 2 + 2 μmol/kg), LC-MS/MS; format: in vivo, mouse; conditions: for Plasma exposure, Fig 7B, individual mice: 10µmol/kg repeated
# Procedure: Assessment of plasma levels and biodistribution of mPD5.
# The mPD5 plasma exposure was determined by (WuXI AppTec (Shanghai, China)) and done following s.c. injection of three male C57BL/6N (vendor: VTLH) mice (7-9 weeks old, fasted) with each concentration of mPD5 (2, 10 and 50 µmol/kg) in sterile PBS. Blood samples were taken 30 min, 1 hour, 2 hours, 5 hours, and 12 hours following injection. For the repeated administration experiment, the initial s.c. injection of 10 µmol/kg was followed by 4 s.c. administrations of 2 µmol/kg with one hour between injections. Following the last injection, blood samples (0.03 mL from saphenous vein or other suitable site) were collected in EDTA- […]
# K2 tubes at 5 min, 30 min, 1 hour, 5 hours, 12 hours, 24 hours, and 48 hours and centrifuged (app 4 ℃, 3200 g, 10 min) for collection of plasma. Plasma was transferred to 96 well plates and quick-frozen over dry ice and kept at -60 ℃ until LC-MS/MS analysis. For LC-MS/MS analysis plasma with 0.25% Triton X100 in 50% MeOH/water (6 µL) was quenched with 160 µL of IS1 (internal standard in MeOH (Labetalol & tolbutamide & Verapamil & dexamethasone & glyburide & Celecoxib 100 ng/mL for each)) and the mixture was vortexed for 10 min at 800 rpm and centrifuged for 15 min at 3220 × g at 4 ℃. An aliquot of 65 µL supernatant was transferred to a clean 96-well plate and centrifuged for 5 min at 3220 × g at 4 ℃, then the supernatant was directly injected for LC-MS/MS analysis. Plasma half-lives were determined from three points in the elimination phase. […]
# [2] = tested on: mice, CFA model of inflammatory pain; assay: CFA model of inflammatory pain, von Frey, s.c. administration; format: in vivo, mouse; conditions: for paw withdrawal threshold (von Frey), individual mice / von Frey paw withdrawal threshold, ipsilateral paw (Fig S7A) / von Frey paw withdrawal threshold, contralateral paw (Fig S7A): listed as myr; for von Frey paw withdrawal threshold, ipsilateral paw (Fig S7A) / von Frey paw withdrawal threshold, contralateral paw (Fig S7A): CFA mice, individual animals; for von Frey paw withdrawal threshold, ipsilateral paw (Fig S7A): group 10; for von Frey paw withdrawal threshold, contralateral paw (Fig S7A): group 10_contra; for effect on mechanical hypersensitivity (PWT): CFA, male mice
# Procedure: Unless otherwise specified, wild type C57BL/6NRj mice (male and female, aged eight-weeks at the beginning of experiment) were used (Janvier, France). Animals were allowed at least seven days of habituation to the animal facility before initiation of experiment. Mice were group-housed in a temperature-controlled room, maintained on a 12/12hour light/dark cycle (lights on at 6 A.M) with free access to standard rodent chow (Altromin 1342 (Brogaarden, […]
# Drug administration and dosing for animal experiments.
# All compounds were diluted in PBS or saline (depending on control) and administered through different routes i.t. (7 μL/mouse)), i.p. (10 μL/g) or s.c. (10 μL/g)) as indicated. Doses of mPD5 were based on previous studies with TPD5 (6) with a subcutaneous dose-range included in the CFA studies further guiding dose selection for SNI, STZ and CIBP studies. Pregabalin dose was chosen based on previous experience from Phenotype Expertise (Marseilles, France). In the CIBP model, a dose of […] morphine was chosen to avoid hyperactivity, though known to provide only partial pain relief in this model. In remaining experiments, 5 mg/kg morphine was chosen, known to provide full pain relief, except for the conditioned place preference experiment, where 10 mg/kg was used instead in accordance with literature. […]
# µL of IS1 (internal standard in MeOH (Labetalol & tolbutamide & Verapamil & dexamethasone & glyburide & Celecoxib 100 ng/mL for each)) and the mixture was vortexed for 10 min at 800 rpm and centrifuged for 15 min at 3220 × g at 4 ℃. An aliquot of 65 µL supernatant was transferred to a clean 96-well plate and centrifuged for 5 min at 3220 × g at 4 ℃, then the supernatant was directly injected for LC-MS/MS analysis. Plasma half-lives were determined from three points in the elimination phase. In a separate experiment, biodistribution was assessed (plasma, CSF, spinal cord, whole brain) at two hours after single dose of 10 µmol/kg or one hour after last injection in the repeated administration paradigm (10 µmol/kg followed by four s.c. administrations of 2 µmol/kg with one hour between). At these times, plasma levels were similar between the two paradigms. Plasma, CSF, and tissue samples (kept at 4 ℃) were processed and analysed as described above.
# Concentration 10 µmol/kg: Wild type mice were habituated to the experimental room for a minimum of 60 min before initiation of the experiment. Female and male mice were run on separate days. Mice were injected s.c. with 10 μmol/kg mPD5 or sterile PBS directly before being placed in open field boxes (40 cm x 40 cm x 80 cm) for 2.5 hours with up to four mice in boxes at any one time. A video camera placed above the open field recorded the animals’ behaviour and Ethovision XT 13 (Noldus) was used to track the distance travelled by the […]
# Concentration 30 + 50 µmol/kg: Animals were habituated to the experimental room for a minimum of 60 min before initiation of the experiment. At initiation of experiment, the mice (all male) were injected subcutaneously (s.c.) with mPD5 (30 or 50 μmol/kg, pH adjusted to approximately 7 with 5 M NaOH) or 0.9 % saline (B.Braun, Germany) and left in their home cage for 60 min. After exactly one hour, the mice were placed in an open field (40 cm x 40 cm x 80 cm) for 60 min. A video camera placed above the open field recorded the animals’ […]
# animal. The experiment was run in cohort with Figure 2B+C of (9)).
# Induction of inflammatory pain (CFA model).
# Injury was induced on the right hind paw, whereas the contralateral left hind paw was used as internal control of the C57BL/6J male and female mice (Janvier, France). The inflammatory pain was induced by injection of 50 μL undiluted Complete Freund’s Adjuvant (CFA) (F5881, Sigma) unilaterally into the intraplantar surface of the right hind paw, whereas control mice were injected with the same amount of 0.9 % saline (B. Braun, Germany). All intraplantar injections were performed with an insulin needle (0.3 mL BD Micro-Fine) while the animal […]
# [3] = 1 hr post myr injection on day 2
# [4] = 5 hrs post myr injection on day 2
# [5] = 25 hrs post myr injection on day 2
# [6] = day 2 after CFA injection (before dosing)
smiles,measurement,setting,value
"CCCCCCCCCCCCCC(=O)N(CCOCCOCCC(=O)N[C@@H](Cc1c[nH]cn1)C(=O)N[C@@H](Cc1c[nH]c2ccccc12)C(=O)N[C@@H](CC(C)C)C(=O)N[C@@H](CCCCN)C(=O)N[C@H](C(=O)O)C(C)C)CCOCCOCCC(=O)N[C@@H](Cc1c[nH]cn1)C(=O)N[C@@H](Cc1c[nH]c2ccccc12)C(=O)N[C@@H](CC(C)C)C(=O)N[C@@H](CCCCN)C(=O)N[C@H](C(=O)O)C(C)C [mPD5, myristoyl-NPEG4-(HWLKV)2]","Plasma exposure, Fig 7B, individual mice",[1]; time 0.5,3149 and 2827 and 2358
same,"Plasma exposure, Fig 7B, individual mice",[1]; time 1,3071 and 3116 and 2251
same,"Plasma exposure, Fig 7B, individual mice",[1]; time 5,8.66 and 8.95 and 4.61
same,half-life,"[1]; C57BL/6N, mouse, plasma, sc, s.c. 10 μmol/kg followed by 4 x 2 μmol/kg in 1-hour intervals",31.2 ± 1.2 min
same,"paw withdrawal threshold (von Frey), individual mice","[2]; CFA day 2, s.c. 50 μmol/kg, contralateral paw, 1 hr post injection",1 (3×) and 2 (3×)
same,"paw withdrawal threshold (von Frey), individual mice","[2]; CFA day 2, s.c. 50 μmol/kg, contralateral paw, 5 hrs post injection",1 (3×) and 1.4 (3×)
same,"paw withdrawal threshold (von Frey), individual mice","[2]; CFA day 2, s.c. 50 μmol/kg, contralateral paw, 24 hrs post injection",1.4 (2×) and 2 (3×) and 1
same,"paw withdrawal threshold (von Frey), individual mice","[2]; CFA day 2, s.c. 50 μmol/kg, contralateral paw, 262 hrs post injection",1 and 2 (2×) and 1.4 (3×)
same,"paw withdrawal threshold (von Frey), individual mice","[2]; CFA day 2, s.c. 50 μmol/kg, ipsilateral paw, 1 hr post injection",0.4 and 1.4 and 2 (2×) and 1 (2×)
same,"paw withdrawal threshold (von Frey), individual mice","[2]; CFA day 2, s.c. 50 μmol/kg, ipsilateral paw, 5 hrs post injection",0.6 and 0.4 (2×) and 1 and 0.16 (2×)
same,"paw withdrawal threshold (von Frey), individual mice","[2]; CFA day 2, s.c. 50 μmol/kg, ipsilateral paw, 24 hrs post injection",0.07 and 0.16 (2×) and 0.4 (3×)
same,"paw withdrawal threshold (von Frey), individual mice","[2]; CFA day 2, s.c. 50 μmol/kg, ipsilateral paw, 262 hrs post injection",1 (2×) and 1.4 (3×) and 0.6
same,"paw withdrawal threshold (von Frey), individual mice","[2]; CFA dose range, s.c. 2 μmol/kg, contralateral paw, 1 hr post injection",2 (4×) and 1.4
same,"paw withdrawal threshold (von Frey), individual mice","[2]; CFA dose range, s.c. 2 μmol/kg, ipsilateral paw, 1 hr post injection",0.6 and 0.16 and 1 and 1.4 and 0.4
same,"paw withdrawal threshold (von Frey), individual mice","[2]; CFA dose range, s.c. 2 μmol/kg, ipsilateral paw, 5 hrs post injection",0.4 and 0.16 (3×) and 0.6
same,"paw withdrawal threshold (von Frey), individual mice","[2]; CFA dose range, s.c. 10 μmol/kg, contralateral paw, 1 hr post injection",1.4 (4×) and 2 (2×)
same,"paw withdrawal threshold (von Frey), individual mice","[2]; CFA dose range, s.c. 10 μmol/kg, contralateral paw, 5 hrs post injection",1 (2×) and 1.4
same,"paw withdrawal threshold (von Frey), individual mice","[2]; CFA dose range, s.c. 10 μmol/kg, ipsilateral paw, 1 hr post injection",0.4 and 0.6 (2×) and 1.4 and 0.16 and 1
same,"paw withdrawal threshold (von Frey), individual mice","[2]; CFA dose range, s.c. 10 μmol/kg, ipsilateral paw, 5 hrs post injection",0.16 and 0.6 (2×) and 1.4
same,"paw withdrawal threshold (von Frey), individual mice","[2]; CFA dose range, s.c. 50 μmol/kg, contralateral paw, 1 hr post injection",1.4 (4×) and 2
same,"paw withdrawal threshold (von Frey), individual mice","[2]; CFA dose range, s.c. 50 μmol/kg, contralateral paw, 5 hrs post injection",2 (3×) and 1.4 (2×)
same,"paw withdrawal threshold (von Frey), individual mice","[2]; CFA dose range, s.c. 50 μmol/kg, ipsilateral paw, 1 hr post injection",1.4 (3×) and 0.6 (2×)
same,"paw withdrawal threshold (von Frey), individual mice","[2]; CFA dose range, s.c. 50 μmol/kg, ipsilateral paw, 5 hrs post injection",0.6 and 1 (2×)
same,"von Frey paw withdrawal threshold, ipsilateral paw (Fig S7A)",[2]; [3],0.6 (2×) and 1 (3×) and 0.4
same,"von Frey paw withdrawal threshold, ipsilateral paw (Fig S7A)",[2]; [4],0.16 (2×) and 0.07 (2×) and 0.4 and 0.6
same,"von Frey paw withdrawal threshold, ipsilateral paw (Fig S7A)",[2]; [5],0.07 (4×) and 0.16 (2×)
same,"von Frey paw withdrawal threshold, ipsilateral paw (Fig S7A)",[2]; baseline before CFA injection,1 and 1.4 (5×)
same,"von Frey paw withdrawal threshold, ipsilateral paw (Fig S7A)",[2]; [6],0.07 (4×) and 0.16 (2×)
same,"von Frey paw withdrawal threshold, contralateral paw (Fig S7A)",[2]; [3],1 (4×) and 1.4 and 0.6
same,"von Frey paw withdrawal threshold, contralateral paw (Fig S7A)",[2]; [4],1 (4×) and 0.6 and 1.4
same,"von Frey paw withdrawal threshold, contralateral paw (Fig S7A)",[2]; [5],0.6 (2×) and 1 (4×)
same,"von Frey paw withdrawal threshold, contralateral paw (Fig S7A)",[2]; baseline before CFA injection,1.4 (5×) and 1
same,"von Frey paw withdrawal threshold, contralateral paw (Fig S7A)",[2]; [6],1 (3×) and 0.6 (2×) and 1.4
same,effect on mechanical hypersensitivity (PWT),"[2]; s.c. 50 μmol/kg, 5 hours after injection",significant reduction of mechanical hypersensitivity
same,effect on mechanical hypersensitivity (PWT),"[2]; s.c. 2, 10 and 50 μmol/kg (all doses), 1 hour after administration",significant reversion of mechanical hypersensitivity
same,effect on mechanical hypersensitivity (PWT),"[2]; single s.c. 50 μmol/kg, 1 hour after injection",reverted hypersensitivity
same,reversion of CFA-induced mechanical hypersensitivity in female mice,"[2]; female mice, s.c. 10 μmol/kg",confirmed
